# Publication PMC6696115, “Characterization of Antimicrobial, Antioxidant, and Leishmanicidal Activities of Schiff Base Derivatives of 4-Aminoantipyrine” (Molecules, 2019)
# Columns and labels:
# [1] = tested on: Aspergillus niger ATCC 6275; assay: antimicrobial serial microdilution, A. niger; format: cell-based; conditions: for MIC: 96-well plates, max 2% DMSO
# Description: (§1) The in vitro antifungal and antimicrobial activities were determined by testing the Schiff bases against the fungi Saccharomyces cerevisiae, Candida albicans, and Aspergillus niger and the bacteria Staphylococcus aureus, Enterococcus faecalis (Gram-positive), Pseudomonas aeruginosa, and Escherichia coli (Gram-negative).
# (§2) The bacterial inoculum was prepared by emulsifying overnight colonies from an agar medium in broth (Mueller–Hinton broth). The suspensions were adjusted to a final organism density of 5 × 10^5 colony former units (cfu)/mL. […] The emulsifying of A. niger cultures was done by pouring 5 mL of saline and 0.1% of polysorbate 80 over the Petri dishes. Then, 100 µL of this suspension were diluted in 5 mL of saline and adjusted to an optical density of 0.1 at 530 nm. For S. cerevisiae, fresh exponential YPAD (yeast extract 1%, peptone 2%, adenine 0.004%, […]) cultures were adjusted to an optical density of 0.5 at 600 nm, and then diluted to the equivalent of 1 × 10^4 cells/mL (10^−3 dilution). Stock solutions of Schiff bases were prepared by dissolving them in DMSO at 10 mg/mL. […] The range of concentrations used was empirically selected for each organisms and the Schiff base. Drug sensitivities were assayed by serial dilutions in 96-well plates as previously described. A row with media and cells but without drug was the positive control. The blank was done by preparing a row with media and drugs, but without cells. Plates were fitted with a tight lid before incubation to prevent desiccation. […] The minimum bactericidal concentration (MBC) and fungicidal concentration (MFC) were determined by spreading 100 µL of culture from each well onto a plate (Mueller–Hinton agar for bacteria, Sabouraud dextrose agar for fungi except S. cerevisiae, and YPAD for S. cerevisiae).
# [2] = tested on: Candida albicans ATCC 10231; assay: antimicrobial serial microdilution, C. albicans; format: cell-based
# Description: as §1, §2
# [3] = tested on: S. cerevisiae (backgrounds W303 and BY4741); assay: antimicrobial serial microdilution, S. cerevisiae; format: cell-based, Saccharomyces cerevisiae; conditions: for MIC: read-out: MIC S. cerevisiae
# Description: as §1, §2
# [4] = tested on: Enterococcus faecalis ATCC 29212; assay: antimicrobial serial microdilution, E. faecalis; format: cell-based
# Description: as §1, §2
# [5] = tested on: Staphylococcus aureus ATCC 29213; assay: antimicrobial serial microdilution, S. aureus; format: cell-based
# Description: as §1, §2
# [6] = tested on: Escherichia coli ATCC 25922; assay: antimicrobial serial microdilution, E. coli; format: cell-based
# Description: as §1, §2
# [7] = tested on: S. cerevisiae wild-type (W303 and BY4741 backgrounds); assay: drop test, wild-type yeast; format: cell-based, Saccharomyces cerevisiae; conditions: wild-type cells
# Description: Since the Schiff bases have a limited solubility in dimethyl sulfoxide (DMSO), first, we tested the toxicity of DMSO against the selected microorganism. […] Wild-type cells from W303 background seem to be more resistant, and sensitivity is observed at around 4% DMSO.
# Next, we wanted to evaluate the oxidative activity. To do this, drop test assays were performed with wild-type (W303 and BY4741 backgrounds) and sod1 (BY4741 background) yeast cells in the presence of 200 µg/mL of the analyzed Schiff bases (Figure 3). The SOD1 gene encodes superoxide dismutase 1, an enzyme with a major role in detoxifying ROS species generated during metabolism or because of environmental exposure. sod1 mutant cells are unprotected against oxidative agents, decreasing survival in their presence. […] Also, wild-type cells are shown as control, unaffected by the Schiff bases.
# For the drop test with S. cerevisiae, wild-type strain (background W303), and wild type and sod1 mutant cells (background BY4741) were grown overnight in YPAD media until an optical density of 0.5 at 600 nm was reached (equivalent to 1 × 10^7 cells/mL). Three serial dilutions were prepared and 5 µL of each was spotted onto a plate (approximately 1 × 10^5, 1 × 10^4, 1 × 10^3, and 1 × 10^2 cells/spot). YPAD plates were supplemented with 200 µg/mL of each Schiff base, and one plate supplemented with 2% DMSO and one plate with YPAD without any drug were used as controls. Plates were incubated at 25 °C for 24, 48, and 72 h.
# S. cerevisiae = tested on: S. cerevisiae; parameters: method as in PMID 24028688; conditions: published data; cited from earlier work
# P. aeruginosa ATCC 27853 = assay: antimicrobial serial microdilution, P. aeruginosa; format: cell-based; conditions: Pseudomonas aeruginosa, ATCC27853, 37 °C, 24 h
# Description: as §1, §2
# [8] = tested on: promastigotes from L. mexicana (M379); assay: leishmanicidal activity, MTT colorimetric assay; format: cell-based; conditions: Leishmania mexicana, 48 h exposure, 1% DMSO
# Description: Leishmanicidal activities of all Schiff bases were evaluated by measuring promastigote mitochondrial activity using MTT colorimetric assay as described previously. […] The medium was renewed every four days. Parasite density was determined in a Neubauer chamber.
# Into each well of a 96-well cell culture dish was dispensed 1 × 10^6 parasites. A stock solution of each of the Schiff Base was prepared in DMSO, and serial dilutions were added to the parasite suspension, keeping the solvent concentration at 1%. The final volume was 100 µL for each well and triplicate conditions were carried out. Pentamidine treatment (100 µg/mL) and untreated parasites were used as positive control and negative control, respectively. After exposure to the compounds for 48 h in culture medium, 10 µL of a solution of 5 mg/mL MTT dissolved in PBS was added to each well. […] Later, the plate was centrifuged at 4400 rpm for 10 min and the culture medium was then aspirated. Next, 100 µL of DMSO were added into each well to solubilize the formazan and the plate was shaken for 5 min. The colored formazan salt was measured by recording changes in absorbance at 570 nm using a microplate reader, a BioTek Synergy HT spectrophotometer. A reference wavelength of 630 nm was used to subtract background. Optical densities were analyzed as the quantity of formazan is directly proportional to the number of viable parasites. Data were analyzed with the statistical software GraphPad Prism.
# [9] = DPPH radical scavenging assay; format: biochemical; conditions: 30 min, room temperature, dark, absorbance 515 nm
# Description: This was used immediately. The experimental procedure was adapted from the literature. Briefly, in a 96-well plate, 100 µL of solution of DPPH (2, 2-diphenyl-1-picrylhydrazyl) radical (0.2 mM in methanol) was added to 100 µL of methanolic solutions of 3a–j, 4, or 5, prepared as serial two-fold dilutions from the stock solution. Standards were also prepared in the same concentrations.
# The percentage of DPPH scavenging was then calculated by using the following formula: % DPPH scavenging=100∗Asample+DPPH−Asample blank/ADPPH−Asolvent
# RAW 264.7 cells = assay: cell viability, MTT dye assay; format: cell-based, murine; conditions: RAW 264.7, exposure to 400 µM, 48 h
# Description: The specificity and selectivity for the pathogen target is a key point for any potential drug.
# The medium was renewed once a week. The viability was determined using MTT (thiazolyl blue tetrazolium bromide) dye assay as described previously for leishmanicidal activity assessment, with some variations. Here, 5 × 10^4 cells/well in a final volume of 100 µL were deposited into a 96-well plate in triplicate. Saponin (2 and 4 mg/mL) and untreated cells were used as the positive control and negative control, respectively. Schiff bases were dissolved in DMSO to obtain different serial concentrations (0.01–2000 µM). […] Cells were pelleted by centrifugation at 4400 rpm for 10 minutes and the media was removed. Next, 100 µL/well of DMSO were added and the absorbance at 570 nm was recorded. A reference wavelength of 630 nm was used for background subtraction.
# [10] = Aspergillus niger, ATCC6275, serial microdilution, 35 °C, 48 h
# [11] = noninhibitory concentration, serial microdilution, 35 °C, 48 h
# [12] = Candida albicans, ATCC10231, serial microdilution, 35 °C, 48 h
# [13] = Saccharomyces cerevisiae, serial microdilution, 35 °C, 48 h
# [14] = Enterococcus faecalis, ATCC29212, serial microdilution, 37 °C, 24 h
# [15] = Staphylococcus aureus, ATCC29213, serial microdilution, 37 °C, 24 h
# [16] = noninhibitory concentration, serial microdilution, 37 °C, 24 h
# [17] = Escherichia coli, ATCC25922, serial microdilution, 37 °C, 24 h
compound,measurement,setting,value
"C[S+](C)[O-] [DMSO, dimethyl sulfoxide]",IC50 DMSO A. niger,[1]; DMSO toxicity,4.36 ± 2.0%
same,MIC DMSO A. niger,[1]; DMSO toxicity,19.22 ± 1.3%
same,NIC DMSO A. niger,[1]; DMSO toxicity,1.78 ± 0.4%
same,IC50 DMSO C. albicans,[2]; DMSO toxicity,8.50 ± 0.5%
same,MIC DMSO C. albicans,[2]; DMSO toxicity,14.98 ± 0.6%
same,NIC DMSO C. albicans,[2]; DMSO toxicity,4.94 ± 0.5%
same,IC50 DMSO S. cerevisiae,[3]; DMSO toxicity,35.62 ± 1.0%
same,MIC DMSO S. cerevisiae,[3]; DMSO toxicity,71.47 ± 1.7%
same,NIC DMSO S. cerevisiae,[3]; DMSO toxicity,5.04 ± 1.1%
same,IC50 DMSO E. faecalis,[4]; DMSO toxicity,8.66 ± 0.6%
same,MIC DMSO E. faecalis,[4]; DMSO toxicity,20.02 ± 1.3%
same,NIC DMSO E. faecalis,[4]; DMSO toxicity,3.68 ± 0.2%
same,IC50 DMSO S. aureus,[5]; DMSO toxicity,20.36 ± 5.2%
same,MIC DMSO S. aureus,[5]; DMSO toxicity,32.64 ± 6.9%
same,NIC DMSO S. aureus,[5]; DMSO toxicity,8.52 ± 0.9%
same,NIC DMSO E. coli,[6]; DMSO toxicity,11.95 ± 2.9%
same,DMSO concentration at which cells begin to show diminished viability (drop test),[7]; BY4741 strain,≥ 3%
same,DMSO concentration at which sensitivity is observed (drop test),[7]; W303 background,around 4%
same,DMSO concentration significantly toxic for S. cerevisiae,S. cerevisiae,over 2%
"Cc1c(N=Cc2cc([N+](=O)[O-])ccc2O)c(=O)n(-c2ccccc2)n1C [Compound 3f, 4-(2-Hydroxy-5-nitrobenzylideneamino)-1,5-dimethyl-2-phenyl-1H-pyrazol-3(2H)-one]",IC50,[1]; [10],10.6 µg/mL
same,MIC,[1]; [10],32.6 ± 2.1 µg/mL
same,NIC A. niger,[1]; [11],3.4 ± 0.5 µg/mL
same,IC50,[2]; [12],10.4 µg/mL
same,MIC,[2]; [12],15.6 ± 0.9 µg/mL
same,NIC C. albicans,[2]; [11],7.5 ± 1.1 µg/mL
same,IC50,"[3]; Saccharomyces cerevisiae, serial microdilution, 35 °C, 48 h, read-out: IC50 S. cerevisiae (converted)",17.9 µg/mL
same,MIC,[3]; [13],55.9 ± 6.2 µg/mL
same,NIC S. cerevisiae,[3]; [11],5.6 ± 0.9 µg/mL
same,MIC,[4]; [14],> 200 µg/mL
same,IC50,[5]; [15],9.5 µg/mL
same,MIC,[5]; [15],27.7 ± 4.7 µg/mL
same,NIC S. aureus,[5]; [16],3.3 ± 1.5 µg/mL
same,IC50,[6]; [17],15.8 µg/mL
same,MIC,[6]; [17],47.7 ± 1 µg/mL
same,NIC E. coli,[6]; [16],4.9 ± 0.2 µg/mL
same,MIC,P. aeruginosa ATCC 27853,> 200 µg/mL
same,IC50,[8],5.3 ± 2.8 µM
same,IC50,[9],> 200 µM
same,melting point,,204.9 to 205.6 °C
"Cc1c(N=Cc2ccccc2)c(=O)n(-c2ccccc2)n1C [Compound 3a, 4-Benzylideneamino-1,5-dimethyl-2-phenyl-1H-pyrazol-3(2H)-one]",MIC,[1]; [10],> 200 µg/mL
same,MIC,[2]; [12],> 200 µg/mL
same,MIC,[3]; [13],> 200 µg/mL
same,IC50,[4]; [14],12.2 µg/mL
same,MIC,[4]; [14],32.3 ± 11.7 µg/mL
same,NIC E. faecalis,[4]; [16],3.6 ± 0.7 µg/mL
same,MIC,[5]; [15],> 200 µg/mL
same,MIC,[6]; [17],> 200 µg/mL
same,MIC,P. aeruginosa ATCC 27853,> 200 µg/mL
same,IC50,[8],> 200 µM
same,IC50,[9],> 200 µM
same,% Live Cells,RAW 264.7 cells,27.1 ± 3.4%
same,melting point,,176.8 to 177.2 °C
